Our source for the EC50 and binding values is article PMC5966403 (2018).

The EC50 is the concentration needed to bring the measured effect to its halfway point. A higher EC50 goes with lower potency in that assay.

Test [1] concerns TSL2 (RNA, hairpin) AUUCCUUAAAUUAAGGAGU
Put plainly: TO-PRO-1 fluorescence displacement. To be noted: Na+ (185 mM NaCl, 8 mM Na2HPO4); pH 7, 0.1 mM EDTA, 40 μg/mL BSA; 0.5 μM RNA; TO-PRO-1 (1 μM) displaced.

For test [2] the test system is unchanged. As to the kind of experiment: NMR (TOCSY) chemical-shift perturbation. To be noted: 40–50 μM RNA, 20 equivalents PK4C9; shifts at U2 and U19.
Test [3] shares this test system. Put plainly: RiboGreen fluorescence displacement. To be noted: Na+ (185 mM NaCl, 8 mM Na2HPO4); RiboGreen (300 nM) displaced.

As for `N=C(N)c1ccc(Nc2ccc(-c3cc4ccc(C(=N)N)cc4[nH]3)cc2)cc1`, the EC50 in test [1] came to 4.5 µM.

In the case of `O=C(c1cnc(C(=O)c2c[nH]c3cc(O)ccc23)[nH]1)c1c[nH]c2ccccc12`, the binding entry in test [2] and in test [3] was “yes” each time. Further, in test [1], the EC50 is 16 µM.

Regarding `O=C(c1cnc(C(=O)c2c[nH]c3ccccc23)[nH]1)c1c[nH]c2ccccc12`, the EC50 in test [1] amounted to 85.9 µM.
